The nature of this test: Inhibition of human GLUT1 in human KMS11 cells over-expressing human GLUT1 assessed as as inhibition of receptor-mediated cell proliferation after 72 hrs by CellTiter-Glo assay.

Turning to `COc1ccc(C(=O)N(Cc2ccncc2)Cc2cccc(OCc3ccc(F)cc3)c2)cc1`, the IC50 amounted to 28.6 µM.
For the compound `COc1ccc(C(=O)N(Cc2ccncc2)Cc2cccc(OCc3cccc(OC)c3)c2)cc1`, the IC50 is 28.5 µM.
As to `COc1ccc(C(=O)N(Cc2ccncc2)Cc2cccc(OCC(=O)c3cccc(Br)c3)c2)cc1`, the IC50 amounted to 21.4 µM.
On to `COc1ccc(CC(=O)N(Cc2ccncc2)Cc2cccc(OCCc3ccc(F)cc3)c2)cc1`, for which the IC50 was determined as 21.8 µM.
For `COc1ccc(C(=O)N(Cc2ccncc2)Cc2cccc(OCCc3ccc(Br)cc3)c2)cc1`, the IC50 was 6.5 µM.
As for `COc1ccc(C(=O)N(Cc2ccncc2)Cc2cccc(OCCc3cccc(C(F)(F)F)c3)c2)cc1`, the IC50 was 15.1 µM.
For `COc1ccc(C(=O)N(Cc2ccncc2)Cc2cccc(OCC3CCOCC3)c2)cc1`, the IC50 is 25.8 µM.
To `COc1ccc(C(=O)N(Cc2ccncc2)Cc2cccc(OCCc3ccccc3)c2)cc1` belongs 21 µM; to `COc1ccc(C(=O)N(Cc2ccncc2)Cc2cccc(OCC3CCCCC3)c2)cc1`, 16 µM.
In the case of `COc1ccc(C(=O)N(Cc2ccncc2)Cc2cccc(OCc3ccc([N+](=O)[O-])cc3)c2)cc1`, the IC50 came out at 11.7 µM.
With `COc1ccc(C(=O)N(Cc2ccncc2)Cc2cccc(OCC(=O)c3ccc(Cl)cc3)c2)cc1`, the IC50 amounted to 16.9 µM.
Take `O=C(c1ccc(Cl)cc1)N(Cc1ccncc1)Cc1cccc(OCCc2ccc(F)cc2)c1`: the IC50 came out at 15.6 µM.
To `COc1ccc(C(=O)N(Cc2ccncc2)Cc2cccc(OCCc3ccc(C)cc3)c2)cc1` belongs 12.7 µM; to `COc1ccc(C(=O)N(Cc2ccncc2)Cc2cccc(OCc3ccc(C(F)(F)F)cc3)c2)cc1`, 16.8 µM.

One may read the IC50 as the concentration that gives 50% inhibition.

(Values after BindingDB's records for doi:10.1016/j.ejmech.2017.08.029 (Emory University, 2017).)
